Results reported in PubChem BioAssay AID1259407 (Chemical Carcinogenesis Research Information System (CCRIS), 2018).
Active and inactive are the calls of the source. The rule behind the calls is not given here.

Tested on: CCRIS mutagenicity, Ames/micronucleus/aberration tests
Test: CCRIS mutagenicity studies
[1] = Test System: AMES SALMONELLA TYPHIMURIUM, Strain/Indicator: TA98, Metabolic Activation: HAMSTER, LIVER, S-9, AROCLOR 1254 (10%), Method: PREINCUBATION
[2] = Test System: AMES SALMONELLA TYPHIMURIUM, Strain/Indicator: TA98, Metabolic Activation: NONE, Method: PREINCUBATION
[3] = Test System: AMES SALMONELLA TYPHIMURIUM, Strain/Indicator: TA98, Metabolic Activation: RAT, LIVER, S-9, AROCLOR 1254 (10%), Method: PREINCUBATION
[4] = Test System: AMES SALMONELLA TYPHIMURIUM, Strain/Indicator: TA100, Metabolic Activation: HAMSTER, LIVER, S-9, AROCLOR 1254 (10%), Method: PREINCUBATION
[5] = Test System: AMES SALMONELLA TYPHIMURIUM, Strain/Indicator: TA100, Metabolic Activation: NONE, Method: PREINCUBATION
[6] = Test System: AMES SALMONELLA TYPHIMURIUM, Strain/Indicator: TA100, Metabolic Activation: RAT, LIVER, S-9, AROCLOR 1254 (10%), Method: PREINCUBATION
[7] = Test System: AMES SALMONELLA TYPHIMURIUM, Strain/Indicator: TA1535, Metabolic Activation: HAMSTER, LIVER, S-9, AROCLOR 1254 (10%), Method: PREINCUBATION
[8] = Test System: AMES SALMONELLA TYPHIMURIUM, Strain/Indicator: TA1535, Metabolic Activation: NONE, Method: PREINCUBATION
[9] = Test System: AMES SALMONELLA TYPHIMURIUM, Strain/Indicator: TA1535, Metabolic Activation: RAT, LIVER, S-9, AROCLOR 1254 (10%), Method: PREINCUBATION
[10] = Test System: AMES SALMONELLA TYPHIMURIUM, Strain/Indicator: TA1537, Metabolic Activation: HAMSTER, LIVER, S-9, AROCLOR 1254 (10%), Method: PREINCUBATION
[11] = Test System: AMES SALMONELLA TYPHIMURIUM, Strain/Indicator: TA1537, Metabolic Activation: NONE, Method: PREINCUBATION
[12] = Test System: AMES SALMONELLA TYPHIMURIUM, Strain/Indicator: TA1537, Metabolic Activation: RAT, LIVER, S-9, AROCLOR 1254 (10%), Method: PREINCUBATION
[13] = Test System: AMES SALMONELLA TYPHIMURIUM, Strain/Indicator: TA98, Metabolic Activation: NONE, Method: STANDARD PLATE
[14] = Test System: AMES SALMONELLA TYPHIMURIUM, Strain/Indicator: TA100, Metabolic Activation: NONE, Method: STANDARD PLATE

Measured: mutagenic call

Nc1ccn([C@@H]2O[C@H](CO)[C@@H](O)[C@@H]2O)c(=O)n1
inactive: [1] inactive; negative | [2] inactive; negative | [3] inactive; negative | [4] inactive; negative | [5] inactive; negative | [6] inactive; negative | [7] inactive; negative | [8] inactive; negative | [9] inactive; negative | [10] inactive; negative | [11] inactive; negative | [12] inactive; negative

CC(O)C(=O)[O][Al]([O]C(=O)C(C)O)[O]C(=O)C(C)O (configuration not stated)
inactive: Test System: AMES SALMONELLA TYPHIMURIUM, Strain/Indicator: TA92, Metabolic Activation: NONE, Method: STANDARD PLATE inactive; negative | [13] inactive; negative | [14] inactive; negative | Test System: AMES SALMONELLA TYPHIMURIUM, Strain/Indicator: TA104, Metabolic Activation: NONE, Method: STANDARD PLATE inactive; negative

C=CC[Si](C)(C)C
inactive: [1] inactive; negative | [2] inactive; negative | [3] inactive; negative | [4] inactive; negative | [5] inactive; negative | [6] inactive; negative | [7] inactive; negative | [8] inactive; negative | [9] inactive; negative | [10] inactive; negative | [11] inactive; negative | [12] inactive; negative | Test System: AMES SALMONELLA TYPHIMURIUM, Strain/Indicator: TA1538, Metabolic Activation: HAMSTER, LIVER, S-9, AROCLOR 1254 (10%), Method: PREINCUBATION inactive; negative | Test System: AMES SALMONELLA TYPHIMURIUM, Strain/Indicator: TA1538, Metabolic Activation: NONE, Method: PREINCUBATION inactive; negative | Test System: AMES SALMONELLA TYPHIMURIUM, Strain/Indicator: TA1538, Metabolic Activation: RAT, LIVER, S-9, AROCLOR 1254 (10%), Method: PREINCUBATION inactive; negative | Test System: MOUSE LYMPHOMA, Strain/Indicator: L5178Y (TK+/TK-), Metabolic Activation: NONE, Method: SUSPENSION/PLATE inactive; negative. reevaluation of results: negative | Test System: MOUSE LYMPHOMA, Strain/Indicator: L5178Y (TK+/TK-), Metabolic Activation: RAT, LIVER, S-9, AROCLOR 1254, Method: SUSPENSION/PLATE inactive; negative. reevaluation of results: negative

CCCCOc1cc(N=Nc2ccc(NCCO)cc2NCCO)ccc1N=Nc1c(S(=O)(=O)O)cc2ccc(N)cc2c1O
inactive: [13] inactive; negative | [14] inactive; negative | Test System: AMES SALMONELLA TYPHIMURIUM, Strain/Indicator: TA100, Metabolic Activation: RAT, LIVER, S-9, AROCLOR 1254, Method: STANDARD PLATE inactive; negative | Test System: AMES SALMONELLA TYPHIMURIUM, Strain/Indicator: TA1538, Metabolic Activation: NONE, Method: STANDARD PLATE inactive; negative
active: Test System: AMES SALMONELLA TYPHIMURIUM, Strain/Indicator: TA98, Metabolic Activation: RAT, LIVER, S-9, AROCLOR 1254, Method: STANDARD PLATE active; positive | Test System: AMES SALMONELLA TYPHIMURIUM, Strain/Indicator: TA1538, Metabolic Activation: RAT, LIVER, S-9, AROCLOR 1254, Method: STANDARD PLATE active; positive

CC(C)(O)[C@H]1Cc2cc3ccc(=O)oc3cc2O1
inactive: Test System: AMES SALMONELLA TYPHIMURIUM, Strain/Indicator: TA94, Metabolic Activation: NONE, Method: SPOT TEST inactive; negative | Test System: AMES SALMONELLA TYPHIMURIUM, Strain/Indicator: TA94, Metabolic Activation: RAT, LIVER, S-9, AROCLOR 1254, Method: SPOT TEST inactive; negative | Test System: AMES SALMONELLA TYPHIMURIUM, Strain/Indicator: TA102, Metabolic Activation: NONE, Method: SPOT TEST inactive; negative | Test System: AMES SALMONELLA TYPHIMURIUM, Strain/Indicator: TA102, Metabolic Activation: RAT, LIVER, S-9, AROCLOR 1254, Method: SPOT TEST inactive; negative
active: Test System: AMES SALMONELLA TYPHIMURIUM, Strain/Indicator: TA92, Metabolic Activation: NONE, Method: SPOT TEST active; positive | Test System: AMES SALMONELLA TYPHIMURIUM, Strain/Indicator: TA92, Metabolic Activation: RAT, LIVER, S-9, AROCLOR 1254, Method: SPOT TEST active; positive | Test System: AMES SALMONELLA TYPHIMURIUM, Strain/Indicator: TA97, Metabolic Activation: NONE, Method: SPOT TEST active; positive | Test System: AMES SALMONELLA TYPHIMURIUM, Strain/Indicator: TA97, Metabolic Activation: RAT, LIVER, S-9, AROCLOR 1254, Method: SPOT TEST active; positive | Test System: AMES SALMONELLA TYPHIMURIUM, Strain/Indicator: TA98, Metabolic Activation: NONE, Method: SPOT TEST active; positive | Test System: AMES SALMONELLA TYPHIMURIUM, Strain/Indicator: TA98, Metabolic Activation: RAT, LIVER, S-9, AROCLOR 1254, Method: SPOT TEST active; positive | Test System: AMES SALMONELLA TYPHIMURIUM, Strain/Indicator: TA100, Metabolic Activation: NONE, Method: SPOT TEST active; positive | [14] active; positive | Test System: AMES SALMONELLA TYPHIMURIUM, Strain/Indicator: TA100, Metabolic Activation: RAT, LIVER, S-9, AROCLOR 1254, Method: SPOT TEST active; positive
